Literature values as cited in patent US20060160088A1, “Diagnostics and therapeutics for diseases associated with g protein-coupled receptor 40 (gpr40)” (Bayer Healthcare AG, priority 2003, published 2006).

Target: GPR40 (Homo sapiens, UniProt O14842)
Conditions: activation of GPR40; most potent fatty acid tested

GPR40, sequence (O14842 whole entry): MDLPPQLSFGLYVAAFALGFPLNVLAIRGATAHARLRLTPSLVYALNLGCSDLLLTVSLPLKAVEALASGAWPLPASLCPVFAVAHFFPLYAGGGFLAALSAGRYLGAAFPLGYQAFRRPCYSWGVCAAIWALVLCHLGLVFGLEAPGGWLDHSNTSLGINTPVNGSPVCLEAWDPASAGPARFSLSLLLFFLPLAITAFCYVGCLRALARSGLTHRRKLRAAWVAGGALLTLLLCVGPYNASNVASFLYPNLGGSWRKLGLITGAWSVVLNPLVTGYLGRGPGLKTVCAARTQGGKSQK

CCCCCCCCC#CCC#CCC#CCCCC(=O)O [Eicosatriynoic acid]
pEC(50): 5.7
